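48-hour exposure; five concentrations; linearly interpolated endpoints. GI50 marks 50% less growth. TGI denotes the concentration required for complete inhibition of growth.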
Experiments:
Assay in all cases: NCI tumour cell line growth inhibition, 48 h
[1] = system: OVCAR-8 ovarian
[2] = system: UACC-62 melanoma
[3] = system: SK-OV-3 ovarian
[4] = system: SNB-75 CNS
[5] = system: KM12 colon
[6] = system: MALME-3M melanoma
[7] = system: EKVX NSCLC
[8] = system: SK-MEL-2 melanoma
[9] = system: MDA-MB-435
[10] = system: PC-3 prostate

SMILES | TGI [1] [µM] | TGI [2] [µM] | TGI [3] [µM] | TGI [4] [µM] | TGI [5] [µM] | TGI [6] [µM] | TGI [7] [µM] | TGI [8] [µM] | GI50 [1] [µM] | GI50 [2] [µM] | GI50 [3] [µM] | GI50 [9] [µM] | TGI [9] [µM] | GI50 [10] [µM] | TGI [10] [µM] | GI50 [5] [µM] | GI50 [7] [µM] | GI50 [8] [µM] | GI50 [4] [µM] | GI50 [6] [µM]
O=C1CC(c2ccccc2)NCN1 (configuration not stated) | > 100 | > 100 | > 100 | > 100 | > 100 | > 100 | > 100 | > 100 | – | – | – | – | – | – | – | – | – | – | – | –
NC(=S)N/N=C1\C(=O)N(c2cccc([N+](=O)[O-])c2)C(=O)C1C(=O)Nc1cccc([N+](=O)[O-])c1 (configuration not stated) | > 100 | > 100 | > 100 | > 100 | – | > 100 | > 100 | > 100 | – | – | – | – | – | – | – | – | – | – | – | –
CCCN1C(=O)/C(=C/c2ccc(O)cc2)SC1=Nc1ccccc1 | 68.8 | 45.3 | 40.8 | – | 55.3 | – | 32.1 | > 100 | 25.8 | 21 | 18 | 21.6 | 41.5 | 28.9 | 59.8 | 19.9 | 14.5 | 51 | – | –
CO/C=C/c1cc2c(cc1C(OC)OC)OCO2 | > 100 | 69.1 | 79.3 | 36.8 | > 100 | > 100 | > 100 | > 100 | – | – | – | – | – | – | – | – | – | – | – | –
N#Cc1c(C(N)=O)ncn1Cc1ccccc1 | > 100 | > 100 | > 100 | > 100 | > 100 | > 100 | > 100 | > 100 | – | – | – | – | – | – | – | – | – | – | – | –
Cn1cc(C(=O)/C(Cl)=C(\Cl)C(=O)O)c2ccccc21 | > 100 | > 100 | > 100 | > 100 | > 100 | > 100 | > 100 | > 100 | – | – | – | – | – | – | – | – | – | – | – | –
CCCCCCCCO/N=C\c1c2c(O)c3c(O)c(C)c4c(c3c1O)C(=O)C(C)(O/C=C\C(OC)C(C)C(OC(C)=O)C(C)C(O)C(C)C(O)C(C)/C=C\C=C(\C)C(=O)N2)O4 (configuration not stated) | 6.97 | 2.92 | 6.68 | 6.97 | 6.36 | – | 6.59 | – | 1.75 | 1.02 | 1.86 | 1.43 | 5.9 | 1.82 | 7.02 | 1.67 | 1.43 | – | 1.66 | –
C[C@@H](Oc1cc(-c2cnn(C3CC4(CCNCC4)C3)c2)cnc1N)c1c(F)ccc(Cl)c1Cl | 12.3 | 3.16 | 6.75 | 2.92 | 1.39 | 3.02 | – | 3.74 | 2.71 | 1.55 | 2.43 | 1.06 | 2.39 | 0.758 | 5.79 | 0.0399 | – | 1.93 | 1.32 | 1.29
CCN(CC)CCCN1C(=O)c2c(c(C)c3c(oc4cc(O)ccc43)c2C)C1=O | 3.61 | 3.44 | 3.2 | 2.91 | 3.37 | 3.51 | 3.16 | 32.6 | 1.78 | 1.92 | 1.73 | 1.76 | 3.22 | – | – | 1.8 | 1.51 | 15.7 | 1.52 | 1.83
Cc1ccc(NC(=O)/C(=N/NC(=O)CC#N)C2C(=O)N(c3ccccc3)N=C2N)cc1C (configuration not stated) | > 100 | > 100 | > 100 | > 100 | > 100 | > 100 | > 100 | > 100 | – | – | – | – | – | – | – | – | – | – | – | –
COc1cc(-c2ccc(-[n+]3nc(-c4ccc([N+](=O)[O-])cc4)nn3-c3ccc([N+](=O)[O-])cc3)c(OC)c2)ccc1-[n+]1nc(-c2ccc([N+](=O)[O-])cc2)nn1-c1ccc([N+](=O)[O-])cc1 | > 71.5 | > 82.8 | 66.3 | 2.95 | 21.4 | 4.47 | – | 17.9 | 12.9 | 22 | 9.08 | 2.51 | 6.62 | 12.8 | 36.5 | 4.04 | – | 4.29 | 1.3 | 1.89
COC1=CC(C)C2C[C@H]3O[C@H](O)C[C@H]4C(C)C(=O)C(O)C([C@@]2(C)C1=O)[C@@]34C (some centres not stated) | > 100 | > 100 | > 100 | > 100 | > 100 | > 100 | > 100 | – | – | – | – | – | – | – | – | – | – | – | – | –
CC(=O)O[C@H]1C(=O)[C@@]2(C)[C@H]([C@H](OC(=O)c3ccccc3)[C@]3(O)C[C@H](OC(=O)[C@H](OC(=O)CCC(=O)OC4CCC(S/N=C(N)/N=C(\N)N(C)C)CC4)[C@@H](NC(=O)c4ccccc4)c4ccccc4)C(C)=C1C3(C)C)[C@]1(OC(C)=O)CO[C@@H]1C[C@@H]2O (some centres not stated) | > 50 | > 25.5 | > 50 | 0.0174 | > 50 | – | > 50 | – | 0.0221 | < 0.0155 | 0.0144 | – | – | 0.0155 | > 50 | 0.0106 | 0.0269 | – | < 0.005 | –
CC1(C)OC(=O)C=C(O)O1.CC1(C)OC(=O)C=C(O)O1.CCO.Oc1ccc2c(c1)CCC2.[Ti] | > 100 | > 100 | > 100 | > 100 | > 100 | > 100 | > 100 | > 100 | > 100 | > 100 | > 100 | – | – | – | – | > 100 | > 100 | > 100 | > 100 | > 100
O=C(CC1(O)C(=O)Nc2ccccc21)c1ccc(O)cc1O (configuration not stated) | > 100 | > 100 | > 100 | > 100 | – | > 100 | > 100 | > 100 | – | – | – | – | – | – | – | – | – | – | – | –
N#C/C(=C\c1ccc(Br)cc1)n1nnc2cc(F)c(F)cc21 | 3.99 | 3 | – | – | 3.74 | 3.12 | – | 3.4 | 1.69 | 1.46 | – | 1.38 | 3.23 | 1.8 | 3.81 | 1.78 | – | 1.76 | – | 1.59
CC(=O)NC(Cc1c[nH]c2ccccc12)C(=O)O (configuration not stated) | > 100 | > 100 | > 100 | – | > 100 | > 100 | > 100 | > 100 | – | – | – | – | > 100 | – | > 100 | – | – | – | – | –
COc1ccc(C2c3cc4c(cc3OC(O)(CO)C2C(=O)O)OCO4)c(OC)c1OC (configuration not stated) (tested in a mixture with another compound) | > 100 | > 100 | > 100 | > 100 | – | > 100 | > 100 | > 100 | – | – | – | – | – | – | – | – | – | – | – | –
